Data as given in ChEMBL document CHEMBL1833884, “Discovery of a brain-penetrant S1P₃-sparing direct agonist of the S1P₁ and S1P₅ receptors efficacious at low oral dose” (J Med Chem, 2011).
One block for each molecule: values may come before it. The source made the active and inactive calls. No cut-off for these calls is given here.

Legend:
[1] = system: MDR1 (P-glycoprotein), human; assay: Efflux ratio of permeability in dog MDCK2 cells expressing human MDR1; type: ADME, cell-based, Canis lupus familiaris, MDCK-II; details: MDCK-MDR1
[2] = molecular target: T1, Sphingosine 1-phosphate receptor 4 (Homo sapiens, UniProt O95977); assay: Agonist activity at human S1P4 expressed in CHO-K1 aequorin cells assessed as calcium accumulation of by luminescence assay in presence of cofactor coelenterazine; type: functional, cell-based
T1 sequence (O95977 whole entry): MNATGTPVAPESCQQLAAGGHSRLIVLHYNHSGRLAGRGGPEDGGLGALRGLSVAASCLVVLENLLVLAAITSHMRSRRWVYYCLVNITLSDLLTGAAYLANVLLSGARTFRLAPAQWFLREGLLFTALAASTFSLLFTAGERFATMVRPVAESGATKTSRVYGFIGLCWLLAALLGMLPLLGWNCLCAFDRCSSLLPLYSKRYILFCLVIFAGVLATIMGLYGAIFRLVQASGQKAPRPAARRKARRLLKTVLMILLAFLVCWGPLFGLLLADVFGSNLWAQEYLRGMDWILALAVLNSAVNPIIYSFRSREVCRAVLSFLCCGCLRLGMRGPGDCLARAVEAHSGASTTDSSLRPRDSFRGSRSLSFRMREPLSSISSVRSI

[3] = molecular target: T2, Sphingosine 1-phosphate receptor 2 (Homo sapiens, UniProt O95136); assay: Agonist activity at human S1P2 receptor expressed in yeast MMY24 assessed as conversion of FDGlu to fluorescein after 24 hrs; type: functional
T2 sequence (O95136 whole entry): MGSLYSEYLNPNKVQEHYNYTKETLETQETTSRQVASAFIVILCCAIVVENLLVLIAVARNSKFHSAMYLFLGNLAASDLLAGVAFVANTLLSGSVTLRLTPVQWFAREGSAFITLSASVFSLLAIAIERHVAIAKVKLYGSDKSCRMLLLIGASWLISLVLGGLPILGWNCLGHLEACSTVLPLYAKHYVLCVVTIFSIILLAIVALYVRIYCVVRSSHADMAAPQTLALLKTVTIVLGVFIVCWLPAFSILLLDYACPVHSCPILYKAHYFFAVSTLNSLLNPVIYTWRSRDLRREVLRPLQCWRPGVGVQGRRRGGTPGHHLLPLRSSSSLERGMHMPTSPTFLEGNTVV

[4] = molecular target: T2, Sphingosine 1-phosphate receptor 2; assay: Agonist activity at human S1P2 receptor expressed in yeast MMY24 assessed as conversion of FDGlu to fluorescein after 24 hrs relative to control; type: functional
[5] = molecular target: T3, Sphingosine 1-phosphate receptor 5 (Homo sapiens, UniProt Q9H228); assay: Agonist activity at human S1P5 receptor expressed in CHO-K1 aequorin cells assessed as calcium accumulation of by luminescence assay in presence of cofactor coelenterazine relative to control; type: functional, cell-based
T3 sequence (Q9H228 whole entry): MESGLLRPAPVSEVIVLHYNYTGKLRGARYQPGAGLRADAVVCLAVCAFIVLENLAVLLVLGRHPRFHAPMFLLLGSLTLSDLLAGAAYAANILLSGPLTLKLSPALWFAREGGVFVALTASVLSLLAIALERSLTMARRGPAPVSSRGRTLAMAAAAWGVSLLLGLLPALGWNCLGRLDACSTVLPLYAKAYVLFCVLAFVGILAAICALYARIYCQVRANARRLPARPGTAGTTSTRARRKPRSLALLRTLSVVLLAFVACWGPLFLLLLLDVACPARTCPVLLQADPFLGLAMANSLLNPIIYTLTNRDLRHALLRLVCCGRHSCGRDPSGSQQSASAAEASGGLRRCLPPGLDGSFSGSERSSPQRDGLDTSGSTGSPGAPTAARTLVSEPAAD

[6] = molecular target: T4, Sphingosine 1-phosphate receptor 3 (Homo sapiens, UniProt Q99500); assay: Agonist activity at human S1P3 receptor expressed in RBL cells assessed as [35S]GTPgammaS binding after 3 hrs by radiometric assay relative to control; type: functional, cell-based
T4 sequence (Q99500 whole entry): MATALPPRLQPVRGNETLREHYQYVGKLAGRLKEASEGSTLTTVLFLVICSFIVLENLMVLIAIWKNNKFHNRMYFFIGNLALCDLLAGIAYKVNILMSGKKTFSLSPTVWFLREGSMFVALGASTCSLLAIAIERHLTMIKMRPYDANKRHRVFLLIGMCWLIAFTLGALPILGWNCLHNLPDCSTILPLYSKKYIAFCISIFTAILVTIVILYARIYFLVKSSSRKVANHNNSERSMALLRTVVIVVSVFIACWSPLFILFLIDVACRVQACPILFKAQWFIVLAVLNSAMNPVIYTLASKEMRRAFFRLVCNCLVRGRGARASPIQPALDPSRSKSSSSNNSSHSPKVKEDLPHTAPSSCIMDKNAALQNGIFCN

[7] = molecular target: T4, Sphingosine 1-phosphate receptor 3; assay: Agonist activity at human S1P3 receptor expressed in RBL cells assessed as [35S]GTPgammaS binding after 3 hrs by radiometric assay; type: functional, cell-based
[8] = molecular target: T5, Sphingosine 1-phosphate receptor 1 (Homo sapiens, UniProt P21453); assay: Agonist activity at human S1P1 receptor expressed in CHO-K1 EDG1 cells expressing beta-arrestin 2 after 105 mins by chemi-luminescence assay; type: functional, cell-based
T5 sequence (P21453 whole entry): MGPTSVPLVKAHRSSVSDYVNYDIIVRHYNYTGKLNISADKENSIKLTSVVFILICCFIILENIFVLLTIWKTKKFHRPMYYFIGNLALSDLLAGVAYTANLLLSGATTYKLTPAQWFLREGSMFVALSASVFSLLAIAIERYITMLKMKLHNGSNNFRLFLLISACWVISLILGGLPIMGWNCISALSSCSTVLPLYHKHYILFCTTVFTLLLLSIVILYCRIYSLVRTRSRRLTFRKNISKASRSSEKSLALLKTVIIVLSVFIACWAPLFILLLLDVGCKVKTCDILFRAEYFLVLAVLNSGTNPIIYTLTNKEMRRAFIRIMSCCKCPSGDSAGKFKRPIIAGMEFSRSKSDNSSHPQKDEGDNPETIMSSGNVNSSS

[9] = molecular target: T5, Sphingosine 1-phosphate receptor 1; assay: Agonist activity at human S1P1 receptor expressed in CHO-K1 EDG1 cells expressing beta-arrestin 2 after 105 mins by chemi-luminescence assay relative to control; type: functional, cell-based
[10] = molecular target: T3, Sphingosine 1-phosphate receptor 5; assay: Agonist activity at human S1P5 receptor expressed in CHO-K1 aequorin cells assessed as calcium accumulation of by luminescence assay in presence of cofactor coelenterazine; type: functional, cell-based
[11] = molecular target: T6, Sphingosine 1-phosphate receptor 4 (Homo sapiens) (UniProt O95977); assay: Agonist activity at human S1P4 expressed in CHO-K1 aequorin cells assessed as calcium accumulation of by luminescence assay in presence of cofactor coelenterazine relative to control; type: functional, cell-based
T6 sequence (whole entry): T1 sequence (O95977 whole entry)

[12] = Half life in CD rat at 1 mg/kg, iv; type: ADME, organism-based; design: dose 1 mg/kg, route intravenous; details: in vivo
[13] = Intrinsic clearance in dog hepatocytes; type: ADME, cell-based, Canis lupus familiaris, Liver, Hepatocyte
Hepatocyte [14] = assay: Intrinsic clearance in rat hepatocytes; type: ADME, cell-based, Liver
[15] = Dissociation constant, pKa of the compound; type: physicochemical
Cytochrome P450 2D6 = Cytochrome P450 2D6 (Homo sapiens, UniProt P10635); assay: Inhibition of CYP2D6; type: ADME
hERG (KCNH2) = hERG (KCNH2) (Homo sapiens, UniProt Q12809); assay: Inhibition of human ERG at 30 uM
Chain of hERG (KCNH2) (Q12809 whole entry): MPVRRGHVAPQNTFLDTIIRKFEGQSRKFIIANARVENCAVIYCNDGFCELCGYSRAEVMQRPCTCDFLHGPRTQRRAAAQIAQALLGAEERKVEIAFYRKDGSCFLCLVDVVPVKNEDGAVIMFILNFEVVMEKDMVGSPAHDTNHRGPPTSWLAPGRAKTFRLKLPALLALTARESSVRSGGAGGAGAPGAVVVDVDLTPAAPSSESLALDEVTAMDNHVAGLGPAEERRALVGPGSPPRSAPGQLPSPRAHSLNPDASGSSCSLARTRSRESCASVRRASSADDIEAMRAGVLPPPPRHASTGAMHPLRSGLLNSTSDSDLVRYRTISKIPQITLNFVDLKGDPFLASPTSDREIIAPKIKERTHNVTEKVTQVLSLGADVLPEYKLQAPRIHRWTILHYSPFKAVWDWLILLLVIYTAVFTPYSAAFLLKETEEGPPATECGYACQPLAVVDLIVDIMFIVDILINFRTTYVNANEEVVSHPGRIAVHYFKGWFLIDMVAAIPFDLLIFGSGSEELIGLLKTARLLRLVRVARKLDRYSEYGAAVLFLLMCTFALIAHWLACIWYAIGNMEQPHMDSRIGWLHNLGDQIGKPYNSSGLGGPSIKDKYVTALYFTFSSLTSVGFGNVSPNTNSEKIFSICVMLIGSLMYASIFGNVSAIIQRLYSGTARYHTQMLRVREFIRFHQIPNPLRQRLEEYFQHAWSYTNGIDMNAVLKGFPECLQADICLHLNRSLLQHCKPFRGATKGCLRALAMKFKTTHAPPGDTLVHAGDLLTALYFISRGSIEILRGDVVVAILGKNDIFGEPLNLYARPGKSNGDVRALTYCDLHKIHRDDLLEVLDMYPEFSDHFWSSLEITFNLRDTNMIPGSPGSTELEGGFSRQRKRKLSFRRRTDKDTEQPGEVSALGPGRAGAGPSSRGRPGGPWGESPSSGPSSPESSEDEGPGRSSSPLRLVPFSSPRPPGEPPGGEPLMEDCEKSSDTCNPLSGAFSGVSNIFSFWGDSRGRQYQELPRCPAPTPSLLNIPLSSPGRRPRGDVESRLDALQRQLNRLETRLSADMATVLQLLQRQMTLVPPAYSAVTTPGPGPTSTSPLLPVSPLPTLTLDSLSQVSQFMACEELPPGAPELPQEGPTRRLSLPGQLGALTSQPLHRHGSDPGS

[16] = Solubility of the compound in fed state simulated intestinal fluid; type: physicochemical; details: simulated gi fluid
[17] = molecular target: Voltage-gated inwardly rectifying potassium channel KCNH2 (Homo sapiens, UniProt Q12809)
Chain of Voltage-gated inwardly rectifying potassium channel KCNH2 (Q12809 whole entry): as above

[18] = Half life in Beagle dog at 1 mg/kg, iv; type: ADME, organism-based, Canis lupus familiaris; design: dose 1 mg/kg, route intravenous; details: in vivo
Cytochrome P450 3A4 [19] = molecular target: T7, Cytochrome P450 3A4 (Homo sapiens, UniProt P08684); assay: Inhibition of CYP3A4 using vivid red as substrate; type: ADME
T7 sequence (P08684 whole entry): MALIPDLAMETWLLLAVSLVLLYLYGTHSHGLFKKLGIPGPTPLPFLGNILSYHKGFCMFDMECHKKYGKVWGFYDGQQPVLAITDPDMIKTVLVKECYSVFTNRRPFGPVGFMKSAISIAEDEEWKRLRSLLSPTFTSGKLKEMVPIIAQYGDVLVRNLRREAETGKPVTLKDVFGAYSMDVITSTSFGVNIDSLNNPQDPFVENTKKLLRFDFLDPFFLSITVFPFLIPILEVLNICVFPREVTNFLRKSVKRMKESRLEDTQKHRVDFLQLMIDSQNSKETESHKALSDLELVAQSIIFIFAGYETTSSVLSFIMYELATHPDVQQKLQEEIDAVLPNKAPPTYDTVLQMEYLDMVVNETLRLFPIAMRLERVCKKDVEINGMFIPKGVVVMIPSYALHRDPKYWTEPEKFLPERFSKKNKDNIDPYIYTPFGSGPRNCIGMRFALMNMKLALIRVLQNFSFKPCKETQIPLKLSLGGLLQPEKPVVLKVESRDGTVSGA

Hepatocyte [20] = assay: Intrinsic clearance in mouse hepatocytes; type: ADME, cell-based, Liver
Rattus norvegicus [21] = assay: Lymphopenic activity in Lewis rat assessed as reduction in blood lymphocyte counts at 0.3 mg/kg, po; type: functional, organism-based; design: dose 0.3 mg/kg
[22] = Chromatographic hydrophobicity index, log D of the compound at pH 2.0; type: physicochemical; details: buffer
[23] = Ratio of drug level in brain to blood in CD rat at 0.8 mg/kg/hr, iv measured up to 7 hrs; type: ADME, organism-based; design: route intravenous
[24] = Volume of distribution at steady state in Beagle dog at 1 mg/kg, iv; type: ADME, organism-based, Canis lupus familiaris; design: dose 1 mg/kg, route intravenous; details: in vivo, read-out: Vdss
[25] = Chromatographic hydrophobicity index, log D of the compound at pH 7.4; type: physicochemical; details: buffer
[26] = Intrinsic clearance in cynomolgus monkey hepatocytes; type: ADME, cell-based, Macaca fascicularis, Liver, Hepatocyte
[27] = Volume of distribution at steady state in CD rat at 1 mg/kg, iv; type: ADME, organism-based; design: dose 1 mg/kg, route intravenous; details: in vivo, read-out: Vdss
[28] = Oral bioavailability in CD rat at 3 mg/kg; type: ADME, organism-based; details: in vivo
Cytochrome P450 2C19 = Cytochrome P450 2C19 (Homo sapiens, UniProt P33261); assay: Inhibition of CYP2C19; type: ADME
[29] = Blood clearance in Beagle dog at 1 mg/kg, iv; type: ADME, organism-based, Canis lupus familiaris; design: dose 1 mg/kg, route intravenous
Cytochrome P450 2C9 = Cytochrome P450 2C9 (Homo sapiens, UniProt P11712); assay: Inhibition of CYP2C9; type: ADME
Chain of Cytochrome P450 2C9 (P11712 whole entry): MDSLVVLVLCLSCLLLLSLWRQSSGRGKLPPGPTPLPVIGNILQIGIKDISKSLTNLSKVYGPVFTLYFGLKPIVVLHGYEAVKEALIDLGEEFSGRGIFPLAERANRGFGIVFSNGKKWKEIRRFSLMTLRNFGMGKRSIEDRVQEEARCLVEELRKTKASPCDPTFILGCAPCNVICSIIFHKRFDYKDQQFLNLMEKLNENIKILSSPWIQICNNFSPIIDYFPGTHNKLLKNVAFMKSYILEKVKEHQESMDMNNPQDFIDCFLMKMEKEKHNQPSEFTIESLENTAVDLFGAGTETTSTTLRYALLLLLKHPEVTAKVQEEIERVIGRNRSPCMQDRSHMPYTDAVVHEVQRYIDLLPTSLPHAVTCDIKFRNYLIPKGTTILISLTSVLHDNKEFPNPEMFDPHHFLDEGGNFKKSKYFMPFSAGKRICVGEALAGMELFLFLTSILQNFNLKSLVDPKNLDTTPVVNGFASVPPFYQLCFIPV

[30] = Blood clearance in CD rat at 1 mg/kg, iv; type: ADME, organism-based; design: dose 1 mg/kg, route intravenous
[31] = Chromatographic hydrophobicity index, log D of the compound at pH 10.5; type: physicochemical; details: buffer
[32] = Oral bioavailability in CD rat at 1 mg/kg; type: ADME, organism-based; details: in vivo
Rattus norvegicus [33] = assay: Lymphopenic activity in Lewis rat assessed as reduction in blood lymphocyte counts at 1 mg/kg, po; type: functional; design: scale not given: the % may be the effect or the level left
Hepatocyte [34] = assay: Intrinsic clearance in human hepatocytes; type: ADME, cell-based, Liver
Cytochrome P450 3A4 [35] = molecular target: T7, Cytochrome P450 3A4; assay: Inhibition of CYP3A4 using vivid green as substrate; type: ADME
[36] = Oral bioavailability in Beagle dog at 1 mg/kg; type: ADME, organism-based, Canis lupus familiaris; details: in vivo
[37] = Bioavailability in CD rat at 1 mg/kg, […]; type: ADME, organism-based; details: in vivo
[38] = Plasma protein binding in CD rat at 1 mg/kg, iv; type: ADME, organism-based; design: dose 1 mg/kg, route intravenous; details: read-out: PPB
Plasma = assay: Fraction unbound in CD rat plasma; type: ADME, cell-free
Rattus norvegicus [39] = assay: Metabolic stability of the compound in Lewis rat at 1 mg/kg, po; type: ADME, organism-based; design: dose 1 mg/kg, route oral; details: in vivo

SMILES: Cc1c(-c2noc(-c3ccc(OC(C)C)c(C#N)c3)n2)ccc2c1CCN(CCC(=O)O)C2
efflux ratio [1]: 6 | EC50 [2]: > 41.7 µM | EC50 [3]: > 33.1 µM | Emax [4]: 1% | Emax [5]: 77% | Emax [6]: 35% | EC50 [7]: > 31.6 µM | EC50 [8]: 0.00562 µM | Emax [9]: 94% | EC50 [10]: 0.162 µM | Emax [11]: 3%

SMILES: Cc1c(-c2noc(-c3ccc(OC(C)C)c(C#N)c3)n2)ccc2c1CCN(C(CO)CO)C2
half-life [12]: 1 h | CL [13]: 30 mL/min/g | CL (Hepatocyte [14]): 3 mL/min/g | pKa [15]: 7.3 | IC50 (Cytochrome P450 2D6): > 50 µM | inhibition at 30 µM (hERG (KCNH2)): 58% | solubility [16]: > 1 µg/mL | IC50 [17]: 12.9 µM | half-life [18]: 3 h | IC50 (Cytochrome P450 3A4 [19]): 15.3 µM | CL (Hepatocyte [20]): 1.3 mL/min/g | Activity (Rattus norvegicus [21]): Active | chromatographic logD [22]: 0.98 | Kp at 7 h [23]: 1.87 | Vd [24]: 7 L/kg | chromatographic logD [25]: 2.64 | CL [26]: 1.3 mL/min/g | Vd [27]: 4.1 L/kg | bioavailability [28]: 52% | IC50 (Cytochrome P450 2C19): > 50 µM | clearance [29]: 29 mL/min/kg | EC50 [7]: > 31.6 µM | EC50 [8]: 0.00316 µM | IC50 (Cytochrome P450 2C9): 4.3 µM | clearance [30]: 60 mL/min/kg | chromatographic logD [31]: 2.99 | bioavailability [32]: 52% | Activity (Rattus norvegicus [33]): 96% | CL (Hepatocyte [34]): 2 mL/min/g | EC50 [10]: 0.02 µM | IC50 (Cytochrome P450 3A4 [35]): 8.4 µM | bioavailability [36]: 45%

SMILES: Cc1c(-c2noc(-c3ccc(OC(C)C)c(C#N)c3)n2)cnc2c1CCN(C(CO)CO)C2
half-life [12]: 2.1 h | pKa [15]: 6.22 | IC50 [17]: 12.6 µM | chromatographic logD [25]: 2 | Vd [27]: 3.3 L/kg | bioavailability [28]: 37% | EC50 [7]: > 100 µM | EC50 [8]: 0.02 µM | clearance [30]: 21 mL/min/kg | Activity (Rattus norvegicus [33]): 70%

SMILES: CC(C)Oc1ccc(-c2nc(-c3cccc4c3OCCN(C(CO)CO)C4)no2)cc1C#N
half-life [12]: 3.5 h | pKa [15]: 6.03 | chromatographic logD [25]: 2.41 | Vd [27]: 3.3 L/kg | EC50 [7]: > 31.6 µM | EC50 [8]: 0.02 µM | clearance [30]: 14 mL/min/kg | Activity (Rattus norvegicus [33]): 60%

SMILES: CC(C)Oc1ncc(-c2nc(-c3ccc4c(c3)CCNCC4)no2)cc1C#N
half-life [12]: 6.3 h | pKa [15]: 9.69 | IC50 [17]: 3.16 µM | chromatographic logD [22]: 1.34 | chromatographic logD [25]: 2.65 | fraction unbound [38]: < 0.05 | Vd [27]: 9.7 L/kg | bioavailability [28]: 70% | EC50 [7]: > 31.6 µM | EC50 [8]: 0.02 µM | clearance [30]: 20 mL/min/kg | chromatographic logD [31]: 3.73 | Fu (Plasma): 0.25%

SMILES: CCCCCCCCc1ccc(CC[C@](N)(CO)COP(=O)(O)O)cc1 [FTY720-P]
EC50 [2]: 0.2 µM | Emax [5]: 7.2% | Emax [6]: 62% | Emax [9]: 99% | Emax [11]: 48%

Continued, in another order:

half-life [12]: 5.3 h | pKa [15]: 7.81 | bioavailability [37]: 68% | chromatographic logD [25]: 2.74 | Vd [27]: 7.6 L/kg | EC50 [7]: 15.8 µM | EC50 [8]: 0.02 µM | clearance [30]: 21 mL/min/kg
SMILES: CC(C)Oc1ccc(-c2nc(-c3ccc4c(c3)CCN(C(CO)CO)CC4)no2)cc1C#N
inhibition at 30 µM (hERG (KCNH2)): 59% | IC50 [17]: 17.8 µM | Activity (Rattus norvegicus [33]): 88%

half-life [12]: 0.6 h | pKa [15]: 7.28 | chromatographic logD [25]: 2.49 | Vd [27]: 3.7 L/kg | EC50 [7]: 6.31 µM | EC50 [8]: 0.00794 µM | clearance [30]: 87 mL/min/kg
SMILES: CC(C)Oc1ccc(-c2nc(-c3ccc4c(c3)CCN(C(CO)CO)C4)no2)cc1C#N
IC50 [17]: 20 µM | Activity (Rattus norvegicus [33]): 49%

half-life [12]: 2 h | pKa [15]: 6.07 | chromatographic logD [25]: 3.04 | Vd [27]: 4.4 L/kg | bioavailability [28]: 38% | Stability (Rattus norvegicus [39]): Unstable | EC50 [7]: 25.1 µM | EC50 [8]: 0.00126 µM | clearance [30]: 32 mL/min/kg
SMILES: Cc1c(-c2noc(-c3ccc(OC(C)C)c(C#N)c3)n2)ccc2c1CCN(CC(=O)N[C@@H](C)CO)C2
inhibition at 30 µM (hERG (KCNH2)): 43% | IC50 [17]: > 10 µM | Activity (Rattus norvegicus [33]): 90%
